From patent US7396812B2, “Method for modulating Nod1 activity, use of a MTP related molecule for modulating Nod1 activity, and therapeutic applications thereof” (Institut Pasteur, priority 2003, dated 2008)
Entries after “also recorded” stand apart in the source; their conditions may differ.

How the values were obtained:
[1] = biological target: T1, Nod1 (Homo sapiens, UniProt Q9Y239); test: Nod1-dependent NF-κB-luciferase activation in Nod1-overexpressing HEK293 cells; type: cell-based; parameters: expressed in transfected cells; host or cells: HEK293; details: for activation of Nod1 by HPLC muropeptide fractions: N. meningitidis PGN muropeptide fractions, 1% of the volume of each fraction; for detection by Nod1 (Nod1-dependent activation of NF-κB): equivalent amounts (10 ng) of muropeptide; for stimulation of the Nod1 pathway (NF-κB activation): LPS, lipid A, lipoprotein preparations, 10 μg (10 μg/ml in b180)
T1 sequence (Q9Y239 1-953): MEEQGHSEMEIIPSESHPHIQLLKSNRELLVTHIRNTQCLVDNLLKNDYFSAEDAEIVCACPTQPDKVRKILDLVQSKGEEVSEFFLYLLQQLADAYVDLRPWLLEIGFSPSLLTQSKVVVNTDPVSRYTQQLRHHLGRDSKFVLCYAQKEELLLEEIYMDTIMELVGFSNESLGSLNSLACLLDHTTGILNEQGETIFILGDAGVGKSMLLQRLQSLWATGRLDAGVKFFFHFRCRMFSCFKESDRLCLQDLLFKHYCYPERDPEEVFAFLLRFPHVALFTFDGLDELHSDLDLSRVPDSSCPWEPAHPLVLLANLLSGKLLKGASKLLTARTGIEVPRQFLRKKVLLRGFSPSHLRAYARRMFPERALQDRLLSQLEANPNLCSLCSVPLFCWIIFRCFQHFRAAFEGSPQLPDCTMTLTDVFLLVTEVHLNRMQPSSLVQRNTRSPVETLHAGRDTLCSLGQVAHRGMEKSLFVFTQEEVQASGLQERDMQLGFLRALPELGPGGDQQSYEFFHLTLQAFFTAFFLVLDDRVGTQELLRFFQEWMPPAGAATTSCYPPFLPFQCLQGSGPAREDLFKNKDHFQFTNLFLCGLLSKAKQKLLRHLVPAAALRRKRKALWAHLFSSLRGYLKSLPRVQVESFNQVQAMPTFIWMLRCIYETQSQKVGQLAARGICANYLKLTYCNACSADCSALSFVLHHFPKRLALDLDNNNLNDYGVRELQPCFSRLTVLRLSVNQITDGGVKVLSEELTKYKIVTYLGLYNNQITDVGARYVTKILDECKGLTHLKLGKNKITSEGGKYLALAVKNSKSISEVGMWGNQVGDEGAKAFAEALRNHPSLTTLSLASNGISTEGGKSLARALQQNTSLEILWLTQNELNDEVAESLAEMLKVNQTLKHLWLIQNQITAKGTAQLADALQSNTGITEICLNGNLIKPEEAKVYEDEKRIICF
Method: (§1) Studies examining the activation of NF-κB by LPS, lipid A, lipoproteins or the purified PGNs in cells over-expressing Nod1 were carried out as described by Inohara et al. (N. Inohara et al., 2001). Briefly, HEK293 cells were transfected overnight with 10 ng of Nod1. At the same time, the LPS, lipoproteins or peptidoglycan preparations were added and the NF-κB-dependent luciferase activation was then measured following 24 h of co-incubation.
(§2) NF-κB-dependent luciferase assays were performed in duplicate and data represent at least 3 independent experiments.

[2] = biological target: T1, Nod1; test: Nod1-dependent IL-8 production in HeLa epithelial cells (ELISA); type: cell-based; parameters: expressed in transfected cells; details: HeLa cells transfected with 10 ng Nod1 plus muropeptide, 18 h
Method: To measure Nod1-dependent IL-8 produced in epithelial cells by muropeptides, 5×10^5 HeLa cells were seeded into each well of a twelve well plate and transfected the following day with 10 ng Nod1 plus the individual muropeptides (as described above) or treated with IL-1 as a positive control. Eighteen hours later, supernatants were collected and assayed for IL-8 as previously described (D. J. Philpott et al., 2000) using an ELISA kit (R and D Systems).

[3] = system: NF-κB p65 in isolated intestinal epithelial cells; test: NF-κB p65 nuclear translocation in isolated intestinal epithelial cells from wild-type or Nod1-deficient mice; type: cell-based; details: supernatants microinjected, TNFα 10 ng/ml
Method: At least 50 microinjected cells were examined per coverslip and experiments were performed at least 2 times independently with similar results.
Microinjection of Gram-negative but not Gram-positive bacterial supernatants activates NF-κB in isolated intestinal epithelial cells from wild-type mice, as observed by nuclear translocation of the p65 subunit of NF-κB (as described in FIG. 3B).

[4] = biological target: T2, Nod2 (Homo sapiens, UniProt Q9HC29); details: previous findings, Girardin et al. 2003; Inohara et al. 2003; cited from earlier work
T2 construct: expressed in transfected cells
T2 sequence (Q9HC29 whole entry): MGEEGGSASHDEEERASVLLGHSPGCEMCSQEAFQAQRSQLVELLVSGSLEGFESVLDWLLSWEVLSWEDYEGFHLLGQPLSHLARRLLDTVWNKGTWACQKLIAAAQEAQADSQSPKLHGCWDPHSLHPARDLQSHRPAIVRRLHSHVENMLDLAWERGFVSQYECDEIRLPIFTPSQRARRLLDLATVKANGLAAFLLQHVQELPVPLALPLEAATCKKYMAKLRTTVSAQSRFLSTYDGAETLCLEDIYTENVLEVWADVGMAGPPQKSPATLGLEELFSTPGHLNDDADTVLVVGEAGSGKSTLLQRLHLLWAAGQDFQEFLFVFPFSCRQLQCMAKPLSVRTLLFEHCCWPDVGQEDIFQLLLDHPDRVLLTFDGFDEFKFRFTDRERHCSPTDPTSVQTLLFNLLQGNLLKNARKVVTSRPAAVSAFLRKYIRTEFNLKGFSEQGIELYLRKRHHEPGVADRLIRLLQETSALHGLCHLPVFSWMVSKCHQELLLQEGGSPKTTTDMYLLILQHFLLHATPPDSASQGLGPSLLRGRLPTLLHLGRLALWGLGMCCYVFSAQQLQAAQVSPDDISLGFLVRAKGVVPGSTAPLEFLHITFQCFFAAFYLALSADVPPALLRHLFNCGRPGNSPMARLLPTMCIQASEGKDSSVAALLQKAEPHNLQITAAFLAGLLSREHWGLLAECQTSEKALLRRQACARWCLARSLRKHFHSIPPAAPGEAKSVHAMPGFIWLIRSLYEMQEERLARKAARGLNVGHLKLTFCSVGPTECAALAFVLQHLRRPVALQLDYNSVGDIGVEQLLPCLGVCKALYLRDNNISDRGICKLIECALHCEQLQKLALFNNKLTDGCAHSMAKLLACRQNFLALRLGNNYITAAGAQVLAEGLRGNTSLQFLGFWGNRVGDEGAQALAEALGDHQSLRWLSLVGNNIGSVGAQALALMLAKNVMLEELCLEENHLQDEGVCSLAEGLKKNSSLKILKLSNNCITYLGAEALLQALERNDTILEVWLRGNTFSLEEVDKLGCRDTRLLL

[5] = biological target: T2, Nod2; test: Nod2-dependent activation of NF-κB; type: cell-based; details: equivalent amounts (10 ng) of muropeptide
Method: as §1, §2
In FIG. 2A, PGN muropeptides from N. meningitidis were separated by reverse-phase HPLC and subsequently analysed by mass spectroscopy (see supporting on-line text). N.D.(a), not determined for this particular HPLC fractionation, but found to be O-acetylated dimeric GM-tetrapeptide in subsequent HPLC fractionation and mass spectroscopy analyses. […] N.D.(b), fraction unknown. […] FIG. 2C is a schematic representation of N. meningitidis PGN detailing the Nod1-active motif from fraction 3 (GM-tripeptide) as determined by mass spectroscopy. In FIG. 2D, equivalent amounts (10 ng) of GM-dipeptide (GM-di; synthetic source), GM-tripeptide (GMtri), or GM-tetrapeptide (GM-tetra) were tested for stimulation of Nod1-, Nod2- or TLR2-dependent activation of NF-κB. […]

In the case of `CC(=O)N[C@H]1[C@@H](OP(=O)(O)OP(=O)(O)OC[C@H]2O[C@@H](n3ccc(=O)[nH]c3=O)[C@H](O)[C@@H]2O)O[C@H](CO)[C@@H](O)[C@@H]1O[C@H](C)C(=O)N[C@@H](C)C(=O)N[C@H](CCC(=O)N[C@@H](CCC[C@@H](N)C(=O)O)C(=O)O)C(=O)O` [UDP-MurTriDAP], the “detection by Nod1 of peptidoglycan structures (FIG. 8)” value (“detection by Nod1 … (FIG. 8)” below) [1] is reported as “detects”.

In the case of “GlcNAc-MurNAc-L-Ala-D-Glu-mesoDAP [GM-tripeptide]”, the “detection by Nod1 … (FIG. 8)” value [1] is reported as “detects”, the “activation of Nod1 by HPLC muropeptide fractions” value ([1]; listed as fraction 3) is reported as “activates Nod1; also recorded: able to activate Nod1” and the “detection by Nod1 (Nod1-dependent activation of NF-κB)” value [1] is reported as “specifically detects”. The “production of IL-8” value [2] was “production of the pro-inflammatory chemokine, IL-8; also recorded: leads to the production”.

In the case of “GlcNAc-anhydro-MurNAc-L-Ala-D-GlumesoDAP [anhydrous GM-tripeptide]”, the “activation of Nod1 by HPLC muropeptide fractions” value [1] is reported as “active molecule in fraction 17”.

In the case of `C[C@H](N)C(=O)N[C@H](CCC(=O)NC(CCCC(N)C(=O)O)C(=O)O)C(=O)O` (stereo partly drawn) [tripeptide L-Ala-D-Glu-mesoDAP, L-Ala-D-Glu-mesoDAP], the “detection by Nod1 … (FIG. 8)” value [1] is reported as “able to sense”.

With “Pam3Cys-Ser-Lys4-OH [synthetic lipopeptide]” the “stimulation of the Nod1 pathway (NF-κB activation)” value (from here on “stimulation of the Nod1 pathway”) [1] was “not possible to stimulate the Nod1 pathway” and the “stimulation of the Nod1 pathway” value ([1]; listed as lipopeptide) was “fail to activate the Nod1 pathway”.

In the case of “GlcNAc-MurNAc-L-Ala-D-Glu-mesoDAP(GlcNAc-MurNAc-L-Ala-D-Glu-mesoDAP-D-Ala)-D-Ala [dimeric GM-tetrapeptide]”, the “activation of Nod1 by HPLC muropeptide fractions” value [1] is reported as “does not activate Nod1”.

With `CC(=O)NC1C(O)OC(CO)C(O)C1OC(C)C(=O)NC(C)C(=O)NC(CCC(=O)NC(CCCC(N)C(=O)O)C(=O)O)C(=O)O` (stereo not drawn) [MurTriDAP] the “detection by Nod1 … (FIG. 8)” value [1] was “detects”.

With `C[C@H](N)C(=O)N[C@H](CCC(=O)NC(CCCC(N)C(=O)O)C(=O)O)C(=O)O` (stereo partly drawn) [TriDAP] the “detection by Nod1 … (FIG. 8)” value [1] was “detects”.

For lipid A, the “stimulation of the Nod1 pathway” value [1] was “could not stimulate the Nod1 pathway”.

For “Lpp: the most abundant lipoprotein in E. coli (lipidated)”, the “stimulation of the Nod1 pathway” value [1] was “fail to activate the Nod1 pathway; also recorded: not possible to stimulate the Nod1 pathway”.

With TNFα the “NF-κB nuclear translocation in Nod1-deficient cells” value [3] was “can efficiently stimulate NF-κB nuclear translocation”.

With “GlcNAc-MurNAc-L-Ala-D-Glu-mesoDAP-DAla [GM-tetrapeptide]” the “detection by Nod1 (Nod1-dependent activation of NF-κB)” value [1] was “not sensed by Nod1”.

For `CC(=O)N[C@@H]1[C@@H](O[C@H](C)C(=O)N[C@@H](C)C(=O)N[C@H](CCC(=O)O)C(N)=O)[C@H](O)[C@@H](CO)O[C@H]1O` [M-dipeptide], the “recognition by Nod2” value [4] is given as “recognizes”.

For `CC(=O)N[C@H]1[C@H](O[C@H]2[C@H](O[C@H](C)C(=O)N[C@@H](C)C(=O)N[C@H](CCC(=O)O)C(N)=O)[C@@H](NC(C)=O)C(O)O[C@@H]2CO)O[C@H](CO)[C@@H](O)[C@@H]1O` (stereo partly drawn) [GM-dipeptide], the “detection by Nod2 (Nod2-dependent activation of NF-κB)” value [5] was “detects”.
